Assay results from patent US10398788B2, “Polymer and contrast agent for photoacoustic imaging including the polymer” (CANON KABUSHIKI KAISHA, priority 2014, dated 2019).

Legend:
[1] = Photo-fading under near-infrared pulse laser irradiation; format: physicochemical; conditions: 4 irradiations
Procedure: With respect to each of Cy7-PMPC (58 k) represented by the formula (47), 700DX-PMPC (57 k) represented by the formula (48), 800CW-PMPC (57 k) represented by the formula (49) and 800RS-PMPC (57 k) represented by the formula (50) obtained in Examples 22, 23, 24 and 25, respectively, and ICG-PMPC (48 k) represented by formula (46) described in Example 12, 2.0 mL of a sample was prepared in which the concentration of each dye-bound PMPC was adjusted so that the absorbance at the maximum absorption wavelength was 0.15. A sample of single ICG as Comparative Example was also prepared. Herein, the irradiation wavelength of near-infrared pulse laser light by use of the PAT apparatus and the excitation wavelength in fluorescence spectrum measurement were set to be the maximum absorption wavelengths of each dye-bound PMPC and ICG. Herein, the excitation wavelengths and the fluorescence emission wavelengths of each dye-bound PMPC and ICG were summarized in FIG. 16. The amount of near-infrared pulse laser light was set to be 8 to 9 mJ at each wavelength, and irradiation at 120 points (detector position) per 20 times was defined as one irradiation and such irradiation was performed at most four times. […] The resultant sample was placed in a 100-μL cuvette, subjected to fluorescence spectrum measurement (FP-6300 manufactured by JASCO Corporation), and studied with respect to photo-fading. […]

[2] = background art; cited from earlier work

SMILES: CC1(C)C(/C=C/C=C/C=C/C=C2/N(CCCCS(=O)(=O)[O-])c3ccc4ccccc4c3C2(C)C)=[N+](CCCCS(=O)(=O)[O-])c2ccc3ccccc3c21.[Na+] [ICG, indocyanine green]
- Photo-fading: normalized fluorescent intensity remaining after laser irradiation [1]: about 15%
- Half-life in blood [2]: about several minutes
